# Like-named read-outs stand apart in the source and are kept apart here. Numbered stars: 1 amine (or outer) side, 2 acyl side, 3 side chain; on linkers, the order of the positions; unused ones are H or OH. Bridge positions count the residues as written; N and C are the ends. Square brackets hold non-standard residues; d marks the D form. Peptide text beside a SMILES is read from it. I, II: the chains in the order shown. Actinocin(1to9) = Cc1c2oc3c(C)ccc(C(=O)[*:2])c3nc-2c(C(=O)[*:1])c(N)c1=O; Actinocin(9to1) = Cc1c2oc3c(C)ccc(C(=O)[*:1])c3nc-2c(C(=O)[*:2])c(N)c1=O; Pro(4-oxo) = O=C1CN[C@H](C(=O)O)C1; Hyp = O=C(O)[CH]1C[CH](O)CN1; NMeV = CN[CH](C(=O)O)C(C)C; Sar = CNCC(=O)O
# Columns and labels:
# [1] = Cytotoxicity assay (Alamar Blue), primary adult mouse brain cells; type: cell-based; conditions: AMB cells, two independent experiments in duplicate wells, read-out: CC50 (50% cytotoxic concentration)
# Method: (§1) Malarial parasite cultures and AMB cells were previously described. The detailed experimental procedure is described in the Supplementary data. Antimalarial activity and cytotoxicity were evaluated at 50% inhibitory concentration (IC50) and 50% cytotoxic concentration (CC50), respectively. We here analyzed these activities on purified actinomycin X2 (1), actinomycin X0ß (2), and commercially available actinomycin D (3). The SI is calculated as CC50/IC50.
# (§2) Blood stages of P. falciparum 3D7 cell lines were provided by Nagasaki University with support in part by NEKKEN Bio-Resource Center (NEKKEN BRC), Institute of Tropical Medicine, Nagasaki University as a part of National BioResource Project (NBRP), MEXT, Japan. Human erythrocytes used for parasite culture were obtained from the Japan Red Cross Society (Registration No. 28J0060). The 3D7 parasites were cultivated in O+ erythrocytes in 2% hematocrit in Roswell Park Memorial Institute (RPMI) 1640-based complete medium (CM) supplemented with 5% AB+ human serum (prepared from plasma), 0.25% AlbuMax I (Gibco, Waltham, MA), 12.5 µg/mL gentamycin, and […] hypoxanthine […]
# Primary adult mouse brain (AMB) cells were isolated and established at the NEKKEN Bio-Resource Center, according to previously established methods (Ref. 2). Briefly, the primary cells, which were passaged several times to be adapted to in vitro conditions, were maintained in Minimum Essential Medium (MEM) (Wako Pure Chemicals Industrial Ltd, Osaka, Japan) supplemented with 10% fetal bovine serum (FBS), penicillin/streptomycin solution (100 units/mL penicillin G and […] streptomycin sulfate) (Wako Pure Chemicals Industrial Ltd) and incubated at 37°C and 5% CO2. For the cytotoxicity assay, primary cells that had completed three passages were used. […]
# SYBR Green – I (Lonza, Rockland, ME) assay technique was used to detect the parasite DNA. […] The relative fluorescence units (RFU) per well were then determined at 485–515 nm (filter) for 0.1 sec per exposure using a multilabel plate reader (ARVO 1430; Perkin Elmer, Waltham, MA, USA). […]
# P. falciparum strain 3D7 = experiment: microbe, parasite or virus in culture; type: cell-based, Plasmodium falciparum; conditions: for SI, selectivity index (CC50/IC50): CC50 in AMB cells / IC50 against 3D7; for IC50: Plasmodium falciparum, 3D7, 48 h, read-out: IC50 (50% inhibitory concentration), in vitro antimalarial activity; for antimalarial activity of purified components (in words): bioassay during purification using P. falciparum strains 3D7 and Dd2
# Method: as §1, §2
# Primary adult mouse brain (AMB) cells were isolated and established at the NEKKEN Bio-Resource Center, according to previously established methods (Ref. 2). Briefly, the primary cells, which were passaged several times to be adapted to in vitro conditions, were maintained in Minimum Essential Medium (MEM) (Wako Pure Chemicals Industrial Ltd, Osaka, Japan) supplemented with 10% fetal bovine serum (FBS), penicillin/streptomycin solution (100 units/mL penicillin G and […] streptomycin sulfate) (Wako Pure Chemicals Industrial Ltd) and incubated at 37°C and 5% CO2. For the cytotoxicity assay, primary cells that had completed three passages were used.
# Antimalarial growth inhibition assays
# The antimalarial growth inhibition assay to determine 50% inhibition concentration (IC50) of compounds was performed as described before, with a minor modification (Ref. 3).
# Briefly, The P. falciparum cultures (0.75% parasitemia and 2% hematocrit) were seeded on a 96-well black plate with the clear bottom (Thermo Fisher Scientific, Rochester, NY) and […]
# exposed to compounds serially diluted threefold over a concentration range of 2.5 µg/mL to 0.13 ng/mL at the final concentration. As a result of the dose-response assay, IC50 value, the concentration of drug required to reduce parasites by 50% (10(log(A/B) × (50 ‒ C)/(D ‒ C) + log(B)) was obtained, where A represents the lowest concentration at which the percentage inhibition was greater than 50%, B is the highest concentration value at which the percentage inhibition was less than 50%, C is the percentage inhibition value of the sample at concentration B, and D is the percentage inhibition value of the sample at concentration A.
# The culture plates were kept at 37°C under mixed gas (5% O2, 5% CO2, and 90% N2) for 48 hrs. Each in vitro experiment was performed in duplicate wells and repeated twice. The parasite growth inhibition was obtained by dividing the test samples' parasitemia by the negative controls' average.
# SYBR Green – I (Lonza, Rockland, ME) assay technique was used to detect the parasite DNA. The RBCs were lysed after 48 hrs of incubation by adding 100 µL of lysis buffer (20 mM Tris, 10 mM EDTA, 0.01% saponin (wt/vol), and 0.1% Triton X-100 (vol/vol), pH 7.5) and 1× final concentration of SYBR Green - I into each well. The plates were incubated at room temperature for 1 hr with gentle agitation. The relative fluorescence units (RFU) per well were then determined at 485–515 nm (filter) for 0.1 sec per exposure using a multilabel plate reader (ARVO 1430; Perkin Elmer, Waltham, MA, USA).
# Cytotoxicity assay was performed to determine 50% cytotoxic concentration (CC50) as previously described with minor modification (Ref. 4). Briefly, AMB cells (1×10^4 cells) were seeded in a 96-well plate (black plate with a clear bottom) and incubated at 37°C in a CO2
Structure (SMILES),CC50 ([1]; 48 hrs) [nM],SI value relative to that of actinomycin D (P. falciparum strain 3D7),"SI, selectivity index (CC50/IC50) (P. falciparum strain 3D7)","IC50 (P. falciparum strain 3D7; P. falciparum 3D7, 48 hrs, two independent experiments in duplicate wells) [nM]",antimalarial activity of purified components (in words) (P. falciparum strain 3D7),SI value relative to that of actinomycin D (P. falciparum strain 3D7; listed as 2) [fold],CC50 at 48 h [1] [nM],IC50 (P. falciparum strain 3D7) [nM],SI value relative to that of actinomycin D (P. falciparum strain 3D7; listed as 1) [fold]
"Cc1c2oc3c(C)ccc(C(=O)NC4C(=O)NC(C(C)C)C(=O)N5CCCC5C(=O)N(C)CC(=O)N(C)C(C(C)C)C(=O)OC4C)c3nc-2c(C(=O)NC2C(=O)NC(C(C)C)C(=O)N3CC(O)CC3C(=O)N(C)CC(=O)N(C)C(C(C)C)C(=O)OC2C)c(N)c1=O (centres unmarked) [actinomycin X0ß] (I: TV[Hyp][Sar][NMeV] / II: TVP[Sar][NMeV]; ester I:1-I:C, II:1-II:C; linker I:N-II:N via Actinocin(1to9); configuration not given here)",818,seven,106,7.69,significant antimalarial activity,7,,,
"Cc1c2oc3c(C)ccc(C(=O)N[C@@H]4C(=O)N[C@H](C(C)C)C(=O)N5CCC[C@H]5C(=O)N(C)CC(=O)N(C)[C@@H](C(C)C)C(=O)O[C@@H]4C)c3nc-2c(C(=O)N[C@@H]2C(=O)N[C@H](C(C)C)C(=O)N3CC(=O)C[C@H]3C(=O)N(C)CC(=O)N(C)[C@@H](C(C)C)C(=O)O[C@@H]2C)c(N)c1=O [actinomycin X2] (I: T[dV][Pro(4-oxo)][Sar][NMeV] / II: T[dV]P[Sar][NMeV]; ester I:1-I:C, II:1-II:C; linker I:N-II:N via Actinocin(1to9))",,,27.9,,significant antimalarial activity,,6.71,0.241,2
"Cc1c2oc3c(C)ccc(C(=O)N[C@@H]4C(=O)N[C@H](C(C)C)C(=O)N5CCC[C@H]5C(=O)N(C)CC(=O)N(C)[C@@H](C(C)C)C(=O)O[C@@H]4C)c3nc-2c(C(=O)N[C@@H]2C(=O)N[C@H](C(C)C)C(=O)N3CCC[C@H]3C(=O)N(C)CC(=O)N(C)[C@@H](C(C)C)C(=O)O[C@@H]2C)c(N)c1=O [actinomycin D] (I: T[dV]P[Sar][NMeV] / II: T[dV]P[Sar][NMeV]; ester I:1-I:C, II:1-II:C; linker I:N-II:N via Actinocin(9to1))",,,14.3,,,,6.71,0.469,

# Reference: publication PMC13310753, “Discovery of actinomycin derivatives with improved selectivity against malaria parasites from a Streptomyces culture library” (The Journal of Antibiotics, 2026)
